Data set [1] can be described thus: In vitro release, USP XXI "paddle" apparatus, distilled water at 37° C. The data set is classed as physicochemical. The procedure: "In vitro" experiments were carried out both on (i) the uncoated solid matrix-type reservoirs, and (ii) the finished devices; i.e., on the reservoirs coated both with the release rate-controlling membrane and with the protective membrane loaded with a portion of the active principle which is desired to be immediately available.
To carry out such experiments, a USP XXI "paddle" apparatus was used with distilled water at 37° C. as the dissolution medium.

A short description of data set [2]: In vitro model, diltiazem release (Example 7; apparatus not restated). The format is physicochemical.
For data set [3] the following is noted: Ex. 1 device, healthy volunteer.
Procedure: A healthy volunteer was administered the same device. The following plasma levels of active principle were detected.
The nature of data set [4]: In vitro release, USP XXI "paddle" apparatus, distilled water at 37° C. Conditions: Ex. 2, coated reservoir, no drug in protective membrane. The data set is classed as physicochemical.
The mark [5] stands for this setting: Ex. 1, coated reservoir, drug-loaded protective membrane, 1 h.
Where [6] appears, read: Ex. 1, coated reservoir, drug-loaded protective membrane, 2 h.
[7] abbreviates: Ex. 1, coated reservoir, drug-loaded protective membrane, 3 h.
Where [8] appears, read: Ex. 1, coated reservoir, drug-loaded protective membrane, 4 h.
The mark [9] stands for this setting: Ex. 1, coated reservoir, drug-loaded protective membrane, 5 h.
The mark [10] stands for this setting: Ex. 1, coated reservoir, drug-loaded protective membrane, 6 h.
Setting [11] is: Ex. 1, uncoated solid matrix-type reservoir (100 mg), 30 min.
[12] abbreviates: Ex. 1, uncoated solid matrix-type reservoir (100 mg), 60 min.
The mark [13] stands for this setting: Ex. 1, uncoated solid matrix-type reservoir (100 mg), 90 min.
Setting [14] is: Ex. 1, uncoated solid matrix-type reservoir (100 mg), 120 min.

Read-outs that look alike come from different tables or passages of the source.

For `CC(=O)O[C@H](CC(=O)[O-])C[N+](C)(C)C` [Acetyl L-carnitine, acetyl L-carnitine], the Total drug released in data set [1] (Ex. 3, coated reservoir, no drug in protective membrane, 1 h) was determined as 60 mg; in data set [1] (Ex. 3, coated reservoir, no drug in protective membrane, 2 h), 135 mg; in data set [1] (Ex. 3, coated reservoir, no drug in protective membrane, 3 h), 210 mg; in data set [1] (Ex. 3, coated reservoir, no drug in protective membrane, 4 h) it was 280 mg; in data set [1] (Ex. 3, coated reservoir, no drug in protective membrane, 5 h) it was 348 mg; in data set [1] (Ex. 3, coated reservoir, no drug in protective membrane, 6 h), 411 mg. Further, the Total drug released in data set [1] (Ex. 3, uncoated solid matrix-type reservoir (500 mg), 30 min) is given as 158 mg; in data set [1] (Ex. 3, uncoated solid matrix-type reservoir (500 mg), 60 min), 242 mg; in data set [1] (Ex. 3, uncoated solid matrix-type reservoir (500 mg), 90 min) it was 335 mg; in data set [1] (Ex. 3, uncoated solid matrix-type reservoir (500 mg), 120 min) it was 395 mg.
Consider `COc1ccc2c(C(=O)c3ccc(Cl)cc3)c(C)n(CC(=O)O)c2c1.NCCCCC(N)C(=O)O` [Clometacin lysinate, clometacin lysinate], for which the Total drug released in data set [1] (Ex. 4, coated reservoir, drug-loaded protective membrane, 1 h) amounted to 15 mg; in data set [1] (Ex. 4, coated reservoir, drug-loaded protective membrane, 2 h), 40 mg; in data set [1] (Ex. 4, coated reservoir, drug-loaded protective membrane, 3 h), 61 mg; in data set [1] (Ex. 4, coated reservoir, drug-loaded protective membrane, 4 h) it was 78 mg; in data set [1] (Ex. 4, coated reservoir, drug-loaded protective membrane, 5 h), 95 mg; in data set [1] (Ex. 4, coated reservoir, drug-loaded protective membrane, 6 h) it was 116 mg. The Total drug released in data set [1] (Ex. 4, uncoated solid matrix-type reservoir (150 mg), 30 min) is 63 mg; in data set [1] (Ex. 4, uncoated solid matrix-type reservoir (150 mg), 60 min) it was 91 mg; in data set [1] (Ex. 4, uncoated solid matrix-type reservoir (150 mg), 90 min), 105 mg; in data set [1] (Ex. 4, uncoated solid matrix-type reservoir (150 mg), 120 min) it was 124 mg.
With `COc1ccc([C@@H]2Sc3ccccc3N(CCN(C)C)C(=O)[C@@H]2OC(C)=O)cc1.Cl` [Diltiazem, diltiazem HCl], the Total drug released in data set [2] (Ex. 7, coated reservoir, no drug in protective membrane, 0.5 h) is on record as 14.4 mg; in data set [2] (Ex. 7, coated reservoir, no drug in protective membrane, 1 h), 29.5 mg; in data set [2] (Ex. 7, coated reservoir, no drug in protective membrane, 2 h) it was 67.6 mg; in data set [2] (Ex. 7, coated reservoir, no drug in protective membrane, 3 h), 89.9 mg; in data set [2] (Ex. 7, coated reservoir, no drug in protective membrane, 4 h), 102.3 mg; in data set [2] (Ex. 7, uncoated solid matrix-type reservoir (120 mg), 15 min) it was 40.0 mg. Besides, the Total drug released turned out to be 57.6 mg in data set [2] (Ex. 7, uncoated solid matrix-type reservoir (120 mg), 30 min); 69.6 mg in data set [2] (Ex. 7, uncoated solid matrix-type reservoir (120 mg), 45 min); 80.4 mg in data set [2] (Ex. 7, uncoated solid matrix-type reservoir (120 mg), 60 min); 85.2 mg in data set [2] (Ex. 7, uncoated solid matrix-type reservoir (120 mg), 75 min).
`COc1ccc2c(c1)c(CC(=O)O)c(C)n2C(=O)c1ccc(Cl)cc1.NCCCC[C@H](N)C(=O)O` [Indomethacin lysinate, Lysine salt of indomethacin]: the “Plasma level of active principle” value in data set [3] (1 h) came out at 1600 ng/mL; in data set [3] (2 h), 2500 ng/mL; in data set [3] (5 h), 3200 ng/mL; in data set [3] (8 h), 1500 ng/mL; in data set [3] (12 h) it was 1100 ng/mL; in data set [3] (24 h), 800 ng/mL. Moreover, the “Release rate in vitro” value in data set [1] (Ex. 1, after release rate-controlling membrane is applied) was “substantially constant through the sixth hour”. Further, the Rate in data set [1] (setting [5]) came out at 14 mg/h; in data set [1] (setting [6]) it was 12.5 mg/h; in data set [1] (setting [7]) it was 13.3 mg/h; in data set [1] (setting [8]) it was 14.25 mg/h; in data set [1] (setting [9]), 15.4 mg/h; in data set [1] (setting [10]), 15.5 mg/h. The Rate worked out at 40 mg/h in data set [1] (setting [11]), 54 mg/h in data set [1] (setting [12]), 43 mg/h in data set [1] (setting [13]) and 37.5 mg/h in data set [1] (setting [14]). For the same molecule, the Total drug released in data set [1] (setting [5]) is reported as 14 mg; in data set [1] (setting [6]) it was 25 mg; in data set [1] (setting [7]) it was 40 mg; in data set [1] (setting [8]), 57 mg; in data set [1] (setting [9]), 77 mg; in data set [1] (setting [10]), 93 mg. The Total drug released in data set [1] (setting [11]) was found to be 20 mg; in data set [1] (setting [12]), 54 mg; in data set [1] (setting [13]), 65 mg; in data set [1] (setting [14]), 75 mg. Besides, the “Time in which drug is wholly released” value in data set [1] (Ex. 1, uncoated solid matrix-type reservoir) was “about 5 hours”.
Consider `CCC(COC(=O)c1cc(OC)c(OC)c(OC)c1)(c1ccccc1)N(C)C` (stereo not shown) [Trimebutine, trimebutine], for which the Total drug released in data set [1] (Ex. 5, coated reservoir, drug-loaded protective membrane, 1 h) was 18 mg; in data set [1] (Ex. 5, coated reservoir, drug-loaded protective membrane, 2 h), 30 mg; in data set [1] (Ex. 5, coated reservoir, drug-loaded protective membrane, 3 h), 50 mg; in data set [1] (Ex. 5, coated reservoir, drug-loaded protective membrane, 4 h), 67 mg; in data set [1] (Ex. 5, coated reservoir, drug-loaded protective membrane, 5 h), 90 mg; in data set [1] (Ex. 5, coated reservoir, drug-loaded protective membrane, 6 h) it was 103 mg. Further, the Total drug released in data set [1] (Ex. 5, uncoated solid matrix-type reservoir (140 mg), 30 min) is reported as 20 mg; in data set [1] (Ex. 5, uncoated solid matrix-type reservoir (140 mg), 60 min), 64 mg; in data set [1] (Ex. 5, uncoated solid matrix-type reservoir (140 mg), 90 min) it was 80 mg; in data set [1] (Ex. 5, uncoated solid matrix-type reservoir (140 mg), 120 min), 105 mg; in data set [1] (Ex. 6, coated reservoir, protective membrane loaded with 15 mg drug, 0.5 h), 22.5 mg; in data set [1] (Ex. 6, coated reservoir, protective membrane loaded with 15 mg drug, 1 h), 45.0 mg. Also, the Total drug released in data set [1] (Ex. 6, coated reservoir, protective membrane loaded with 15 mg drug, 2 h) was 82.5 mg; in data set [1] (Ex. 6, coated reservoir, protective membrane loaded with 15 mg drug, 3 h), 105.0 mg; in data set [1] (Ex. 6, coated reservoir, protective membrane loaded with 15 mg drug, 4 h) it was 120.0 mg; in data set [1] (Ex. 6, coated reservoir, protective membrane loaded with 15 mg drug, 5 h) it was 127.5 mg; in data set [1] (Ex. 6, uncoated solid matrix-type reservoir (135 mg), 20 min), 47 mg; in data set [1] (Ex. 6, uncoated solid matrix-type reservoir (135 mg), 40 min), 64.8 mg. Also, the Total drug released is on record as 77.0 mg in data set [1] (Ex. 6, uncoated solid matrix-type reservoir (135 mg), 60 min); 87.8 mg in data set [1] (Ex. 6, uncoated solid matrix-type reservoir (135 mg), 80 min); 94.5 mg in data set [1] (Ex. 6, uncoated solid matrix-type reservoir (135 mg), 100 min); 115 mg in data set [1] (Ex. 6, uncoated solid matrix-type reservoir (135 mg), 180 min).
On to methisoprinol, for which the Total drug released in data set [4] (1 h) was found to be 53 mg; in data set [4] (5 h) it was 273 mg; in data set [1] (Ex. 2, coated reservoir, no drug in protective membrane, 2 h) it was 115 mg; in data set [1] (Ex. 2, coated reservoir, no drug in protective membrane, 3 h) it was 173 mg; in data set [1] (Ex. 2, coated reservoir, no drug in protective membrane, 4 h), 223 mg; in data set [1] (Ex. 2, coated reservoir, no drug in protective membrane, 6 h) it was 315 mg. In addition, the Total drug released in data set [1] (Ex. 2, coated reservoir, no drug in protective membrane, 7 h) is 357 mg; in data set [1] (Ex. 2, uncoated solid matrix-type reservoir (500 mg), 30 min) it was 225 mg; in data set [1] (Ex. 2, uncoated solid matrix-type reservoir (500 mg), 60 min), 312 mg; in data set [1] (Ex. 2, uncoated solid matrix-type reservoir (500 mg), 90 min) it was 365 mg; in data set [1] (Ex. 2, uncoated solid matrix-type reservoir (500 mg), 120 min), 405 mg.

Values taken from patent publication US4681755A, “Delivery device for zero-order release of an active principle into a dissolution fluid and process for its preparation” (Sigma-Tau Industrie Farmaceutiche Riunite S.p.A., priority 1984, dated 1987).
